Results: PMC2819846 (Mutation research, 2008)

What was measured:
Type in all cases: cell-based
[1] = tested on: Salmonella TA98; assay: Salmonella plate-incorporation mutagenicity assay, strain TA98, with S9 mix
[2] = tested on: Salmonella TA100; assay: Salmonella plate-incorporation mutagenicity assay, strain TA100; settings: for Mutagenic potency, Revertants/µg ± S.E., TA100 / Mutagenicity call TA100: plate-incorporation, +S9
[3] = tested on: Salmonella TA104; assay: Salmonella plate-incorporation mutagenicity assay, strain TA104, with S9 mix; settings: for Mutagenic potency, Revertants/µg ± S.E., TA104: plate-incorporation, +S9
[4] = TA98 +S9, Test 1, 2 µg/plate, zero-dose 33/40/39
[5] = TA98 +S9, Test 1, 5 µg/plate, zero-dose 33/40/39
[6] = TA98 +S9, Test 1, 10 µg/plate, zero-dose 33/40/39
[7] = TA98 +S9, Test 1, 20 µg/plate, zero-dose 33/40/39
[8] = TA98 +S9, Test 1, 40 µg/plate, zero-dose 33/40/39
[9] = TA98 +S9, Test 1, 80 µg/plate, zero-dose 33/40/39
[10] = TA98 +S9, Test 2, 20 µg/plate, zero-dose 43/41/30
[11] = TA98 +S9, Test 2, 40 µg/plate, zero-dose 43/41/30
[12] = TA98 +S9, Test 2, 80 µg/plate, zero-dose 43/41/30
[13] = TA98 +S9, Test 3, 20 µg/plate, zero-dose 49/50/50
[14] = TA98 +S9, Test 3, 40 µg/plate, zero-dose 49/50/50
[15] = TA100 +S9, Test 1, 2 µg/plate, zero-dose 99/110/110
[16] = TA100 +S9, Test 1, 5 µg/plate, zero-dose 99/110/110
[17] = TA100 +S9, Test 1, 10 µg/plate, zero-dose 99/110/110
[18] = TA100 +S9, Test 1, 20 µg/plate, zero-dose 99/110/110
[19] = TA100 +S9, Test 1, 40 µg/plate, zero-dose 99/110/110
[20] = TA100 +S9, Test 1, 80 µg/plate, zero-dose 99/110/110

## O[C@@H]1c2ccccc2-c2c(ccc3ccccc23)[C@H]1O (racemic) [B[c]P 5,6-diol, (± )-trans-5,6-Dihydrobenzo[c]phenanthrene 5,6-diol]
[1]; [4]
  Rev/plate: 31 rev/plate
[1]; [5]
  Rev/plate: 41 rev/plate
[1]; [6]
  Rev/plate: 41 rev/plate
[1]; [7]
  Rev/plate: 29 rev/plate
[1]; [8]
  Rev/plate: 34 rev/plate
[1]; [9]
  Rev/plate: 40 rev/plate
[1]; TA98 +S9, Test 2, 10 µg/plate, zero-dose 43/41/30
  Rev/plate: 43/42
[1]; [10]
  Rev/plate: 27/49
[1]; [11]
  Rev/plate: 46/33
[1]; [12]
  Rev/plate: 52/35
[1]; TA98 +S9, Test 3, 10 µg/plate, zero-dose 49/50/50
  Rev/plate: 51/47
[1]; [13]
  Rev/plate: 46/60
[1]; [14]
  Rev/plate: 51/47
[1]; TA98 +S9, Test 3, 100 µg/plate, zero-dose 49/50/50
  Rev/plate: 32/47
[1]; plate-incorporation, +S9
  Mutagenic potency, Revertants/µg ± S.E., TA98: −0.1 ± 0.1 rev/µg
[2]; [15]
  Rev/plate: 132 rev/plate
[2]; [16]
  Rev/plate: 151 rev/plate
[2]; [17]
  Rev/plate: 147 rev/plate
[2]; [18]
  Rev/plate: 192 rev/plate
[2]; [19]
  Rev/plate: 193 rev/plate
[2]; [20]
  Rev/plate: 263 rev/plate
[2]; TA100 +S9, Test 2, 40 µg/plate, zero-dose 84/78/80
  Rev/plate: 161/116
[2]; TA100 +S9, Test 2, 80 µg/plate, zero-dose 84/78/80
  Rev/plate: 129/144
[2]; TA100 +S9, Test 2, 120 µg/plate, zero-dose 84/78/80
  Rev/plate: 127/129
[2]; TA100 +S9, Test 3, 40 µg/plate, zero-dose 127/118/125
  Rev/plate: 210/248
[2]; TA100 +S9, Test 3, 80 µg/plate, zero-dose 127/118/125
  Rev/plate: 306/328
[2]; TA100 +S9, Test 3, 120 µg/plate, zero-dose 127/118/125
  Rev/plate: 375/304
[2]
  Mutagenic potency, Revertants/µg ± S.E., TA100: 1.6 ± 0.7 rev/µg
  Mutagenicity call TA100: (+) (Called mutagenic (+) based on showing reproducible, dose-related increases in rev/plate that reached or exceeded 2-fold relative to zero-dose controls)
[3]; TA104 +S9, Test 2, 40 µg/plate, zero-dose 276/260/270
  Rev/plate: 457 rev/plate
[3]; TA104 +S9, Test 2, 80 µg/plate, zero-dose 276/260/270
  Rev/plate: 506 rev/plate
[3]; TA104 +S9, Test 2, 120 µg/plate, zero-dose 276/260/270
  Rev/plate: 507 rev/plate
[3]
  Mutagenic potency, Revertants/µg ± S.E., TA104: 2.5 ± 1.2 rev/µg

## O[C@@H]1c2ccccc2-c2c(ccc3sccc23)[C@H]1O (racemic) [P[3,4-b]T 6,7-diol, (± )-trans-6,7-Dihydrophenanthro[3,4-b]thiophene 6,7-diol]
[1]; [4]
  Rev/plate: 45 rev/plate
[1]; [5]
  Rev/plate: 47 rev/plate
[1]; [6]
  Rev/plate: 61 rev/plate
[1]; [7]
  Rev/plate: 62 rev/plate
[1]; [8]
  Rev/plate: 107 rev/plate
[1]; [9]
  Rev/plate: 130 rev/plate
[1]; [10]
  Rev/plate: 64/63
[1]; [11]
  Rev/plate: 72/84
[1]; [12]
  Rev/plate: 146/141
[1]; TA98 +S9, Test 2, 150 µg/plate, zero-dose 43/41/30
  Rev/plate: 207/190
[1]; [13]
  Rev/plate: 90/111
[1]; [14]
  Rev/plate: 132/132
[1]; TA98 +S9, Test 3, 80 µg/plate, zero-dose 49/50/50
  Rev/plate: 181/199
[1]; TA98 +S9, Test 3, 150 µg/plate, zero-dose 49/50/50
  Rev/plate: 241/222
[1]; plate-incorporation, +S9
  Mutagenic potency, Revertants/µg ± S.E., TA98: 1.4 ± 0.2 rev/µg
  Mutagenicity call TA98: (+) (Called mutagenic (+) based on showing reproducible, dose-related increases in rev/plate that reached or exceeded 2-fold relative to zero-dose controls)
[2]; [15]
  Rev/plate: 280 rev/plate
[2]; [16]
  Rev/plate: 461 rev/plate
[2]; [17]
  Rev/plate: 580 rev/plate
[2]; [18]
  Rev/plate: 1052 rev/plate
[2]; [19]
  Rev/plate: 1172 rev/plate
[2]; [20]
  Rev/plate: 1286 rev/plate
[2]; TA100 +S9, Test 2, 2 µg/plate, zero-dose 84/78/80
  Rev/plate: 224/217
[2]; TA100 +S9, Test 2, 5 µg/plate, zero-dose 84/78/80
  Rev/plate: 369/364
[2]; TA100 +S9, Test 2, 10 µg/plate, zero-dose 84/78/80
  Rev/plate: 746/565
[2]; TA100 +S9, Test 2, 20 µg/plate, zero-dose 84/78/80
  Rev/plate: 593/607
[2]; TA100 +S9, Test 3, 2 µg/plate, zero-dose 127/118/125
  Rev/plate: 305/298
[2]; TA100 +S9, Test 3, 5 µg/plate, zero-dose 127/118/125
  Rev/plate: 573/564
[2]; TA100 +S9, Test 3, 10 µg/plate, zero-dose 127/118/125
  Rev/plate: 862/714
[2]; TA100 +S9, Test 3, 20 µg/plate, zero-dose 127/118/125
  Rev/plate: 1142/1113
[2]
  Mutagenic potency, Revertants/µg ± S.E., TA100: 59.8 ± 6.1 rev/µg
  Mutagenicity call TA100: (+) (Called mutagenic (+) based on showing reproducible, dose-related increases in rev/plate that reached or exceeded 2-fold relative to zero-dose controls)
[3]; TA104 +S9, Test 2, 2 µg/plate, zero-dose 276/260/270
  Rev/plate: 365/338
[3]; TA104 +S9, Test 2, 5 µg/plate, zero-dose 276/260/270
  Rev/plate: 407/431
[3]; TA104 +S9, Test 2, 10 µg/plate, zero-dose 276/260/270
  Rev/plate: 475/484
[3]; TA104 +S9, Test 2, 20 µg/plate, zero-dose 276/260/270
  Rev/plate: 538/576
[3]; TA104 +S9, Test 3, 2 µg/plate, zero-dose 402/395/336
  Rev/plate: 475/419
[3]; TA104 +S9, Test 3, 5 µg/plate, zero-dose 402/395/336
  Rev/plate: 498/541
[3]; TA104 +S9, Test 3, 10 µg/plate, zero-dose 402/395/336
  Rev/plate: 532/550
[3]; TA104 +S9, Test 3, 20 µg/plate, zero-dose 402/395/336
  Rev/plate: 533/627
[3]
  Mutagenic potency, Revertants/µg ± S.E., TA104: 24.9 ± 8.3 rev/µg
